Patent US10633350B2, “Diphenyl derivatives and uses thereof” (NOVARTIS AG, priority 2017, dated 2020)

Key:
Akt = Akt activation assay (Phospho-AKT (Ser473) antibody staining) in U2OS GFP-FoxO3a H212R reporter cells; assay type: cell-based; conditions: Homo sapiens, 0.5 h, serum starved overnight, 30 minutes compound treatment, total cellular intensity of Phospho-Akt (Ser473) antibody staining, AC50 = concentration that results in 50% activation or inhibition
Description: (§1) Phosphorylation of Akt on S473 and FoxO3a nuclear to cytoplasmic translocation were used as readouts of PI3K/Akt/mTOR pathway activation downstream of growth factor signaling.
(§2) Reporter cell line. U2OS GFP-FoxO3a H212R reporter cell line was established by transducing U2OS cells with the retroviral plasmid pLEGFP-C1 containing FoxO3a H212R transgene and selecting for G418 resistant clones.
(§3) Reporter assay. U2OS GFP-FoxO3a H212R cells were plated in 384-well plates at 4000 cells per well in 30 microliters of McCoy's 5A medium containing 10% FBS. On day 1 the cells were washed with serum free medium and serum starved overnight. On day 2 the cells were treated with different doses of the compounds for 30 minutes, fixed with 4% Paraformaldehyde for 1 hour and stained with Phospho-AKT (Ser473) antibody (Cell Signaling Technology, catalog #4060) overnight at 4° C. After nuclei staining with Hoechst 33342 (Life Technologies, catalog # H3570) the plates were imaged with InCell 2000 (GE Healthcare Bio-Sciences). FoxO3a inhibition activity is calculated as the ratio of nuclear to cytosolic GFP intensity in percent. Akt activation is measured as the total cellular intensity of Phospho-Akt antibody staining in percent. DMSO control is set as 0% activity.

FoxO3a = FoxO3a inhibition assay (GFP-FoxO3a nuclear to cytoplasmic translocation) in U2OS GFP-FoxO3a H212R reporter cells; assay type: cell-based; conditions: Homo sapiens, 0.5 h, serum starved overnight, 30 minutes compound treatment, ratio of nuclear to cytosolic GFP intensity, AC50 = concentration that results in 50% activation or inhibition, read-out: FoxO AC50
Description: as §1, §2, §3

Cc1cc(C(N)=O)nn1-c1ccc(C(C)(C)c2ccc(-c3ccc(C4(N)COC4)cc3)cc2)cc1 [Example 12, 1-(4-(2-(4′-(3-aminooxetan-3-yl)-[1,1′-biphenyl]-4-yl)propan-2-yl)phenyl)-5-methyl-1H-pyrazole-3-carboxamide]
AC50 (Akt): 0.283 µM
AC50 (FoxO3a): 0.093 µM

Cc1nc(C(N)=O)nn1-c1ccc(Cc2ccc(-c3ccc(C(=O)N4CCNCC4)cc3)cc2)cc1 [Example 25, 5-methyl-1-(4-((4′-(piperazine-1-carbonyl)-[1,1′-biphenyl]-4-yl)methyl)phenyl)-1H-1,2,4-triazole-3-carboxamide]
AC50 (Akt): 0.726 µM
AC50 (FoxO3a): 0.135 µM

Cc1nc(C(N)=O)nn1-c1ccc(Cc2ccc(-c3ccc(CN4CCN(C)CC4)cc3)cc2)cc1 [Example 15-1, 5-methyl-1-(4-((4′-((4-methylpiperazin-1-yl)methyl)-[1,1′-biphenyl]-4-yl)methyl)phenyl)-1H-1,2,4-triazole-3-carboxamide]
AC50 (Akt): 0.166 µM
AC50 (FoxO3a): 0.069 µM

Cc1nc(C(N)=O)nn1-c1ccc(Cc2ccc(-c3ccc(CN4CCNCC4)cc3)cc2)cc1 [Example 45, 5-methyl-1-(4-((4′-(piperazin-1-ylmethyl)-[1,1′-biphenyl]-4-yl)methyl)phenyl)-1H-1,2,4-triazole-3-carboxamide]
AC50 (Akt): 0.003 µM
AC50 (FoxO3a): 0.13 µM

Cc1cc(C(N)=O)nn1-c1ccc(Cc2ccc(-c3ccncc3)cc2)cc1 [Example 3-5, 5-methyl-1-(4-(4-(pyridin-4-yl)benzyl)phenyl)-1H-pyrazole-3-carboxamide]
AC50 (Akt): 0.156 µM
AC50 (FoxO3a): 0.061 µM

Cc1cc(C(N)=O)nn1-c1ccc(Cc2ccc(-c3ccc(C4(O)COC4)nc3)cc2)cc1 [Example 22, 1-(4-(4-(6-(3-hydroxyoxetan-3-yl)pyridin-3-yl)benzyl)phenyl)-5-methyl-1H-pyrazole-3-carboxamide]
AC50 (Akt): 0.187 µM
AC50 (FoxO3a): 0.042 µM

Cc1cc(C(N)=O)nn1-c1ccc(Cc2ccc(-c3ccc(S(=O)(=O)CCO)cc3)cc2)cc1 [Example 17, 1-(4-((4′-((2-hydroxyethyl)sulfonyl)-[1,1′-biphenyl]-4-yl)methyl)phenyl)-5-methyl-1H-pyrazole-3-carboxamide]
AC50 (Akt): 0.101 µM
AC50 (FoxO3a): 0.029 µM

Cc1nc(C(N)=O)nn1-c1ccc(Cc2ccc(-c3ccc(CN4CCC(C)(O)CC4)cc3)cc2)cc1 [Example 39-6]
AC50 (Akt): 0.005 µM
AC50 (FoxO3a): 0.009 µM

Cc1nc(C(N)=O)nn1-c1ccc(Cc2ccc(-c3ccc(CN4CCC5(CCO5)CC4)cc3)cc2)cc1 [Example 39-37]
AC50 (Akt): 0.27 µM
AC50 (FoxO3a): 0.081 µM

Cc1nc(C(N)=O)nn1-c1ccc(Cc2ccc(-c3ccc(CN4CCN(C)CC4)nc3)cc2)cc1 [Example 34, 5-methyl-1-(4-(4-(6-((4-methylpiperazin-1-yl)methyl)pyridin-3-yl)benzyl)phenyl)-1H-1,2,4-triazole-3-carboxamide]
AC50 (Akt): 0.576 µM
AC50 (FoxO3a): 0.3 µM

Cc1cc(-c2ccc(C(C)(C)c3ccc(-n4nc(C(N)=O)nc4C)cc3)cc2)ccn1 [Example 13-9]
AC50 (Akt): 0.714 µM
AC50 (FoxO3a): 0.183 µM

Cc1nc(C(N)=O)nn1-c1ccc(Cc2ccc(-c3cc(C(C)(C)O)ccn3)cc2)cc1 [Example 53, 1-(4-(4-(4-(2-hydroxypropan-2-yl)pyridin-2-yl)benzyl)phenyl)-5-methyl-1H-1,2,4-triazole-3-carboxamide]
AC50 (Akt): 8.23 µM
AC50 (FoxO3a): 2.42 µM

Cc1cc(C(N)=O)nn1-c1ccc(C(C)(C)c2ccc(-c3ccncc3)cc2)cc1 [Example 6-3, 5-methyl-1-(4-(2-(4-(pyridin-4-yl)phenyl)propan-2-yl)phenyl)-1H-pyrazole-3-carboxamide]
AC50 (Akt): 0.432 µM
AC50 (FoxO3a): 0.149 µM

Cc1cc(C(N)=O)nn1-c1ccc(Cc2ccc(C3=CCCN(C)CC3)cc2)cc1 [Example 5-7, 5-methyl-1-(4-(4-(1-methyl-2,3,6,7-tetrahydro-1H-azepin-4-yl)benzyl)phenyl)-1H-pyrazole-3-carboxamide]
AC50 (Akt): 1.37 µM
AC50 (FoxO3a): 0.412 µM

Cc1nc(C(N)=O)nn1-c1ccc(Cc2ccc(C#CC3(O)CCCCC3)cc2)cc1 [Example 55, 1-(4-(4-((1-hydroxycyclohexyl)ethynyl)benzyl)phenyl)-5-methyl-1H-1,2,4-triazole-3-carboxamide]
AC50 (Akt): 1.29 µM
AC50 (FoxO3a): 0.096 µM

Cc1cc(C(N)=O)nn1-c1ccc(C(C)(C)c2ccc(-c3cccc(S(C)(=O)=O)c3)cc2)cc1 [Example 6-2, 5-methyl-1-(4-(2-(3′-(methylsulfonyl)-[1,1′-biphenyl]-4-yl)propan-2-yl)phenyl)-1H-pyrazole-3-carboxamide]
AC50 (Akt): 1.81 µM
AC50 (FoxO3a): 0.48 µM

Cc1cc(C(N)=O)nn1-c1ccc(C(C)(C)c2ccc(-c3ccc(CN4CCCC4)cc3)cc2)cc1 [Example 6-1, 5-methyl-1-(4-(2-(4′-(pyrrolidin-1-ylmethyl)-[1,1′-biphenyl]-4-yl)propan-2-yl)phenyl)-1H-pyrazole-3-carboxamide]
AC50 (Akt): 0.292 µM
AC50 (FoxO3a): 0.115 µM

Cc1nc(C(N)=O)nn1-c1ccc(Cc2ccc(-c3ccc(C(C)(C)CO)cn3)cc2)cc1 [Example 56, 1-(4-(4-(5-(1-hydroxy-2-methylpropan-2-yl)pyridin-2-yl)benzyl)phenyl)-5-methyl-1H-1,2,4-triazole-3-carboxamide]
AC50 (Akt): 0.366 µM
AC50 (FoxO3a): 0.156 µM

Cc1nc(C(N)=O)nn1-c1ccc(Cc2ccc(-c3ccc(CN4CC5(COC5)C4)cc3)cc2)cc1 [Example 38-4]
AC50 (Akt): 0.207 µM
AC50 (FoxO3a): 0.062 µM

Cc1nc(C(N)=O)nn1-c1ccc(Cc2ccc(-c3ccc(CN4CCC(C(C)(C)O)CC4)cc3)cc2)cc1 [Example 39-3]
AC50 (Akt): 0.12 µM
AC50 (FoxO3a): 0.037 µM

Cc1nc(C(N)=O)nn1-c1ccc(C(C)(C)c2ccc(-c3cnc4c(c3)OCCN4C)cc2)cc1 [Example 13-11]
AC50 (Akt): 1 µM
AC50 (FoxO3a): 0.416 µM

Cc1cc(C(N)=O)nn1-c1ccc(Cc2ccc3c(c2)OCc2ccccc2-3)cc1 [Example 2, 1-(4-((6H-benzo[c]chromen-3-yl)methyl)phenyl)-5-methyl-1H-pyrazole-3-carboxamide]
AC50 (Akt): 0.326 µM
AC50 (FoxO3a): 0.137 µM

Cc1cc(C(N)=O)nn1-c1ccc(Cc2ccc(-c3ccc(CN4CC(F)(F)C[C@@H]4CO)cc3)cc2)cc1 [Example 18, (R)-1-(4-((4′-((4,4-difluoro-2-(hydroxymethyl)pyrrolidin-1-yl)methyl)-[1,1′-biphenyl]-4-yl)methyl)phenyl)-5-methyl-1H-pyrazole-3-carboxamide]
AC50 (Akt): 0.394 µM
AC50 (FoxO3a): 0.095 µM

Cc1cc(C(N)=O)nn1-c1ccc(Cc2ccc(-c3ccc(C(=O)N4CCNCC4)cc3)cc2)cc1 [Example 24, 5-methyl-1-(4-((4′-(piperazine-1-carbonyl)-[1,1′-biphenyl]-4-yl)methyl)phenyl)-1H-pyrazole-3-carboxamide]
AC50 (Akt): 0.155 µM
AC50 (FoxO3a): 0.033 µM

Cc1nc(C(N)=O)nn1-c1ccc(Cc2ccc(-c3ccc(C(C)(C)CO)cc3)cc2)cc1 [Example 48, 1-(4-((4′-(1-hydroxy-2-methylpropan-2-yl)-[1,1′-biphenyl]-4-yl)methyl)phenyl)-5-methyl-1H-1,2,4-triazole-3-carboxamide]
AC50 (Akt): 0.16 µM
AC50 (FoxO3a): 0.051 µM

Cc1nc(C(N)=O)nn1-c1ccc(C(C)(C)c2ccc(-c3ccc(N4CCCC4)nc3)cc2)cc1 [Example 13-14]
AC50 (Akt): 1.17 µM
AC50 (FoxO3a): 0.386 µM

Cc1nc(C(N)=O)nn1-c1ccc(Cc2ccc(-c3ccc(S(=O)(=O)NCC(C)(C)O)cn3)cc2)cc1 [Example 52, 1-(4-(4-(5-(N-(2-hydroxy-2-methylpropyl)sulfamoyl)pyridin-2-yl)benzyl)phenyl)-5-methyl-1H-1,2,4-triazole-3-carboxamide]
AC50 (Akt): 0.749 µM
AC50 (FoxO3a): 0.106 µM

Cc1cc(C(N)=O)nn1-c1ccc(C(C)(C)c2ccc(-c3ccnc(N)c3)cc2)cc1 [Example 6-5, 1-(4-(2-(4-(2-aminopyridin-4-yl)phenyl)propan-2-yl)phenyl)-5-methyl-1H-pyrazole-3-carboxamide]
AC50 (Akt): 0.415 µM
AC50 (FoxO3a): 0.134 µM

Cc1cc(C(N)=O)nn1-c1ccc(Cc2ccc(-c3ccc(CNC4CCC4)cc3)cc2)cc1 [Example 16-3]
AC50 (Akt): 0.804 µM
AC50 (FoxO3a): 0.5 µM

Cc1cc(C(N)=O)nn1-c1ccc(Cc2ccc(-c3cccnc3)cc2)cc1 [Example 3-10, 5-methyl-1-(4-(4-(pyridin-3-yl)benzyl)phenyl)-1H-pyrazole-3-carboxamide]
AC50 (Akt): 0.497 µM
AC50 (FoxO3a): 0.11 µM

Cc1nc(C(N)=O)nn1-c1ccc(Cc2ccc(-c3ccc(CN4CCC5(CC4)COC5)cc3)cc2)cc1 [Example 38-8]
AC50 (Akt): 0.211 µM
AC50 (FoxO3a): 0.051 µM

Cc1nc(C(N)=O)nn1-c1ccc(C(C)(C)c2ccc(-c3ccc(C(N)C(F)(F)F)cc3)cc2)cc1 (stereo not drawn) [Example 14, 1-(4-(2-(4′-(1-amino-2,2,2-trifluoroethyl)-[1,1′-biphenyl]-4-yl)propan-2-yl)phenyl)-5-methyl-1H-1,2,4-triazole-3-carboxamide]
AC50 (Akt): 0.18 µM
AC50 (FoxO3a): 0.113 µM

Cc1nc(C(N)=O)nn1-c1ccc(C(C)(C)c2ccc(-c3ccsc3)cc2)cc1 [Example 13-16]
AC50 (Akt): 0.926 µM
AC50 (FoxO3a): 0.377 µM
